Laboratory results: US10945932B2, “Prebiotic oral care compositions containing carboxylic acids” (COLGATE-PALMOLIVE COMPANY, priority 2013, dated 2021)
Read-outs that look alike come from different tables or passages of the source.

Columns and labels:
[1] = test system: Actinomyces viscosus; assay: Metabolic activity, Biolog phenotype microarray; type: cell-based; settings: A viscosus
[2] = test system: Aggregatibacter actinomycetemcomitans; assay: Metabolic activity, Biolog phenotype microarray; type: cell-based; settings: A actinomycetemcomitans
[3] = test system: Capnocytophaga sputigena; assay: Metabolic activity, Biolog phenotype microarray; type: cell-based; settings: C sputigena
[4] = test system: Fusobacterium nucleatum; assay: Metabolic activity, Biolog phenotype microarray; type: cell-based; settings: F nucleatum
[5] = test system: Streptococcus mitis; assay: Metabolic activity, Biolog phenotype microarray; type: cell-based; settings: S mitis
[6] = test system: Streptococcus mutans; assay: Metabolic activity, Biolog phenotype microarray; type: cell-based; settings: S mutans
[7] = test system: Streptococcus salivarius; assay: Metabolic activity, Biolog phenotype microarray; type: cell-based; settings: S salivarius
[8] = test system: Streptococcus sanguinis; assay: Metabolic activity, Biolog phenotype microarray; type: cell-based; settings: S sanguinis
[9] = test system: Streptococcus sobrinus; assay: Metabolic activity, Biolog phenotype microarray; type: cell-based; settings: S sobrinus
[10] = test system: Tannerella forsythia; assay: Metabolic activity, Biolog phenotype microarray; type: cell-based; settings: T forsythia
[11] = test system: Veillonella parvula; assay: Metabolic activity, Biolog phenotype microarray; type: cell-based; settings: V parvula
[12] = test system: beneficial oral bacteria and pathogenic oral bacteria; assay: Metabolic activity, prebiotic effect over the whole panel; type: cell-based; settings: threshold value of 2
[13] = test system: beneficial oral bacteria and pathogenic oral bacteria; assay: Biofilm growth, prebiotic effect over the whole panel; type: cell-based; settings: 25 μmol/ml; 48 hours; threshold value of 1.6
Description: Late exponential growth phase liquid cultures were prepared by transferring the respective bacterium from blood agar plates to BHI and overnight incubation at 37° C. in an anaerobic atmosphere for A. viscosus, V. parvula, F. nucleatum, P. gingivalis, P. intermedia, T. forsythia, A. naeslundii, and C. sputigena, and in a 5% CO2 environment for S. salivarius, S. sanguinis, S. mitis, A. actinomycetemcomitans, S. mutans, and S. gordonii. […] Additionally, for each bacterium tested, a background control, to correct for background staining, was added. This background control contained the bacterium tested and 0.03 weight % chlorhexidine, as an antiseptic. Plates were incubated as previously described. After 48 hrs the supernatant was removed from the wells of the plates. The wells were washed twice with 1×100 μL/PBS (phosphate buffered saline), fixed for 20 minutes with 96% vol. ethanol (96% vol. solution in water) and the biofilm retained at the bottom of the wells was stained with 1 weight % crystal violet (1 weight % solution in water). […] Quantification of the stained biofilm was performed by measuring the absorbance at 630 nm using a Multiskan Ascent microplate reader (Thermo Scientific).

[14] = test system: Aggregatibacter actinomycetemcomitans; settings: A actinomycetemcomitans, BHI
Description: (§1) Late exponential growth phase liquid cultures were prepared by transferring the respective bacterium from blood agar plates to BHI and overnight incubation at 37° C. in an anaerobic atmosphere for A. viscosus, V. parvula, F. nucleatum, P. gingivalis, P. intermedia, T forsythia, A. naeslundii, and C. sputigena, and in a 5% CO2 environment for S. salivarius, S. sanguinis, S. mitis, A. actinomycetemcomitans, S. mutans, S. sobrinus and S. gordonii. Overnight cultures were transferred to BHI and adjusted to a concentration of 1×10^7 CFU/ml (colony forming units per ml) by measuring the optical density at 600 nm (OD600) (BioRad SmartSpec 3000). For each strain, 200 μl of the bacterial suspension was added to a 96-well plate containing 20 μl of the respective carboxylic acids. Final concentrations of the carboxylic acids were set to 5, 10, 20 and 25 μmol/ml. […] Plates were incubated as previously described.
(§2) For each combination of bacterium/carboxylic acid, and for each of their respective controls (i.e. the particular bacterium in the nutritionally rich medium with no carboxylic acid), the optical density was measured at 630 nm (OD630) at 0 h, 24 h and 48 h (Thermo Scientific Multiskan Ascent). Additionally, the OD630 for combinations of bacterium/carboxylic acid grown in a 5% CO2 environment were also measured every hour between 0 h and 9 h.
(§3) The experiment was carried out on three different days (thus providing 3 biological replicas) and on each day the experiment was carried out in quadruple (thus providing 4 technical replicas) for each combination of bacterium with carboxylic acid and for each control. For each day and for each combination, the average (mean) of the values obtained (as detailed above) for the four technical replicas was calculated to provide a single value for each combination on each day.

[15] = test system: Streptococcus mutans; settings: S mutans, BHI
Description: as §1, §2, §3

[16] = test system: Capnocytophaga sputigena; settings: C sputigena, BHI
Description: as §1, §2, §3

[17] = test system: Actinomyces viscosus; settings: A viscosus, BHI
Description: as §1, §2, §3

[18] = test system: Streptococcus salivarius; settings: S salivarius, BHI
Description: as §1, §2, §3

[19] = test system: Streptococcus sanguinis; settings: S sanguinis, BHI
Description: as §1, §2, §3

[20] = test system: beneficial oral bacteria and pathogenic oral bacteria; settings: over 48 hours, threshold value of 1.25
Description: The beneficial oral bacteria tested were Streptococcus mitis, Streptococcus salivarius, Streptococcus sanguinis, Actinomyces viscosus, Streptococcus gordonii, Capnocytophaga sputigena, Actinomyces naeslundii and Veillonella parvula. The pathogenic oral bacteria tested were Streptococcus mutans, Prevotella intermedia, Porphyromonas gingivalis, Fusobacterium nucleatum, Tannerella forsythia, Aggregatibacter actinomycetemcomitans and Streptococcus sobrinus.
as §1, §2, §3
This value was selected in order to exclude low-stimulating metabolites and avoid false positive results.

O=C(O)CCC(=O)O [Succinic acid, succinic acid]
metabolic activity, OD at 492 nm divided by OD of control (control = 1) ([1]; 24 hrs): 0.9752 | metabolic activity, OD at 492 nm divided by OD of control (control = 1) ([1]; 48 hrs): 1.0089 | metabolic activity, OD at 492 nm divided by OD of control (control = 1) ([2]; 24 hrs): 1.1066 | metabolic activity, OD at 492 nm divided by OD of control (control = 1) ([2]; 48 hrs): 1.2815 | metabolic activity, OD at 492 nm divided by OD of control (control = 1) ([3]; 24 hrs): 1.0400 | metabolic activity, OD at 492 nm divided by OD of control (control = 1) ([3]; 48 hrs): 1.0105 | metabolic activity, OD at 492 nm divided by OD of control (control = 1) ([4]; 24 hrs): 0.8508 | metabolic activity, OD at 492 nm divided by OD of control (control = 1) ([4]; 48 hrs): 0.8574 | metabolic activity, OD at 492 nm divided by OD of control (control = 1) ([5]; 24 hrs): 0.9268 | metabolic activity, OD at 492 nm divided by OD of control (control = 1) ([5]; 48 hrs): 0.8537 | metabolic activity, OD at 492 nm divided by OD of control (control = 1) ([6]; 24 hrs): 0.8991 | metabolic activity, OD at 492 nm divided by OD of control (control = 1) ([6]; 48 hrs): 0.8576 | metabolic activity, OD at 492 nm divided by OD of control (control = 1) ([7]; 24 hrs): 0.9019 | metabolic activity, OD at 492 nm divided by OD of control (control = 1) ([7]; 48 hrs): 0.8347 | metabolic activity, OD at 492 nm divided by OD of control (control = 1) ([8]; 24 hrs): 0.9046 | metabolic activity, OD at 492 nm divided by OD of control (control = 1) ([8]; 48 hrs): 0.8763 | metabolic activity, OD at 492 nm divided by OD of control (control = 1) ([9]; 24 hrs): 0.8265 | metabolic activity, OD at 492 nm divided by OD of control (control = 1) ([9]; 48 hrs): 0.8068 | metabolic activity, OD at 492 nm divided by OD of control (control = 1) ([10]; 24 hrs): 0.9307 | metabolic activity, OD at 492 nm divided by OD of control (control = 1) ([10]; 48 hrs): 0.9641 | metabolic activity, OD at 492 nm divided by OD of control (control = 1) ([11]; 24 hrs): 2.8247 | metabolic activity, OD at 492 nm divided by OD of control (control = 1) ([11]; 48 hrs): 2.2852 | prebiotic effect (metabolic activity) ([12]; 24 hrs): exhibited prebiotic effects | prebiotic effect (metabolic activity) ([12]; 48 hrs): exhibited prebiotic effects | prebiotic effect (biofilm growth) [13]: exhibited prebiotic effects | extent of growth, maximal OD630 over 48 hr divided by maximal OD of control (control = 1) ([14]; 5 μmol/ml): 0.6497 | extent of growth, maximal OD630 over 48 hr divided by maximal OD of control (control = 1) ([14]; 10 μmol/ml): 0.4197 | extent of growth, maximal OD630 over 48 hr divided by maximal OD of control (control = 1) ([14]; 20 μmol/ml): 0.1940 | extent of growth, maximal OD630 over 48 hr divided by maximal OD of control (control = 1) ([14]; 25 μmol/ml): 0.1968 | extent of growth, maximal OD630 over 48 hr divided by maximal OD of control (control = 1) ([15]; 5 μmol/ml): 0.8643 | extent of growth, maximal OD630 over 48 hr divided by maximal OD of control (control = 1) ([15]; 10 μmol/ml): 0.8599 | extent of growth, maximal OD630 over 48 hr divided by maximal OD of control (control = 1) ([15]; 20 μmol/ml): 0.8734 | extent of growth, maximal OD630 over 48 hr divided by maximal OD of control (control = 1) ([15]; 25 μmol/ml): 0.8448 | extent of growth, maximal OD630 over 48 hr divided by maximal OD of control (control = 1) ([16]; 5 μmol/ml): 0.9743 | extent of growth, maximal OD630 over 48 hr divided by maximal OD of control (control = 1) ([16]; 10 μmol/ml): 0.7668 | extent of growth, maximal OD630 over 48 hr divided by maximal OD of control (control = 1) ([16]; 20 μmol/ml): 0.6198 | extent of growth, maximal OD630 over 48 hr divided by maximal OD of control (control = 1) ([16]; 25 μmol/ml): 0.4571 | extent of growth, maximal OD630 over 48 hr divided by maximal OD of control (control = 1) ([17]; 5 μmol/ml): 0.5671 | extent of growth, maximal OD630 over 48 hr divided by maximal OD of control (control = 1) ([17]; 10 μmol/ml): 0.3693 | extent of growth, maximal OD630 over 48 hr divided by maximal OD of control (control = 1) ([17]; 20 μmol/ml): 0.1827 | extent of growth, maximal OD630 over 48 hr divided by maximal OD of control (control = 1) ([17]; 25 μmol/ml): 0.1586 | extent of growth, maximal OD630 over 48 hr divided by maximal OD of control (control = 1) ([18]; 5 μmol/ml): 1.0823 | extent of growth, maximal OD630 over 48 hr divided by maximal OD of control (control = 1) ([18]; 10 μmol/ml): 0.8904 | extent of growth, maximal OD630 over 48 hr divided by maximal OD of control (control = 1) ([18]; 20 μmol/ml): 0.2795 | extent of growth, maximal OD630 over 48 hr divided by maximal OD of control (control = 1) ([18]; 25 μmol/ml): 0.2197 | extent of growth, maximal OD630 over 48 hr divided by maximal OD of control (control = 1) ([19]; 5 μmol/ml): 0.7980 | extent of growth, maximal OD630 over 48 hr divided by maximal OD of control (control = 1) ([19]; 10 μmol/ml): 0.6726 | extent of growth, maximal OD630 over 48 hr divided by maximal OD of control (control = 1) ([19]; 20 μmol/ml): 0.2724 | extent of growth, maximal OD630 over 48 hr divided by maximal OD of control (control = 1) ([19]; 25 μmol/ml): 0.2132 | prebiotic effect (extent of growth) ([20]; 20 μmol/ml): exhibited prebiotic effects | prebiotic effect (extent of growth) ([20]; 25 μmol/ml): exhibited prebiotic effects
